Assay results taken from US6906061B2, “Pharmaceutical agent containing Rho kinase inhibitor” (Mitsubishi Pharma Corporation, priority 1996, dated 2005).

What was measured:
[1] = tested on: Bovine Aorta Thoracia Rho Kinase; experiment: Rho kinase inhibitory action (inhibition of bovine aorta thoracia Rho kinase); assay type: biochemical; conditions: test compound 10 μM
Procedure: Rho Kinase Inhibitory Action (Inhibition of Bovine Aorta Thoracia Rho Kinase)
The Rho kinase was prepared from bovine aorta of thorax by partial purification as in the following. The artery was minced and homogenized with a 9-fold amount of 50 mM Tris-hydroxymethylaminomethane (Tris) (pH=7.4), 1 mM dithiothreitol, 1 mM EGTA, 1 mM EDTA, 100 μM p-amidinophenylmethylsulfonyl fluoride, 5 μM E-64, 5 μM leupeptine and 5 μM pepstatin A. The homogenate was centrifuged (10,000×g, 30 minutes) to give supernatant. The supernatant was adsorbed onto a hydroxyapatite column. The column was washed with 0.2M phosphate buffer (pH=6.8). The standard product of Rho kinase was eluted with 0.4M phosphate buffer (pH=6.8). The Rho kinase was assayed as follows.
A reaction mixture (total amount 50 μl) containing 50 mM Tris, 1 mM EDTA, 5 mM MgCl2, 50 μg/ml histone, 10 μM GTPγS, 100 μg/ml Rho, 2 μM [^32P]ATP, the Rho kinase (3 μl) prepared in the above and the test compound was reacted at 30° C. for 5 minutes. The reaction was terminated by the addition of 25% trichloroacetic acid (TCA) solution (1 ml) and the mixture was stood at 4° C. for 30 minutes. Then, the mixture was filtered through a membrane filter (HAWP type, Millipore), and the radioactivity of the filter was counted on a liquid scintillation counter. The inhibitory action of the test compound was calculated from the following formula based on the comparison of the radioactivity with the sample without the test compound (control).

[2] = tested on: thoractic aorta ring contracted with phenylephrine; experiment: Vasodilating action on phenylephrine-contracted thoracic aorta rings; conditions: Oryctolagus cuniculus; rabbit aortic ring, phenylephrine 10^−6 M contraction; concentration for 50% relaxation; read-out: Vasorelaxing action
Procedure: Male rabbits (body weight 1.9-3.0 kg) were anesthetized with pentobarbital sodium and exsanguinated, whereafter thoractic aorta was removed. An about 2 mm width aortic ring samples were prepared and hung in a Magnus bath (40 ml) filled with Krebs-Henseleit solution (37° C., NaCl 117 mM; KCl 4.7 mM; CaCl2 2.5 mM; MgSO4 1.2 mM; NaHCO3 24.8 mM; KH2PO4 1.2 mM; glucose 11.0 mM) at a load of 2 g. The Magnus bath was constantly bubbled with a mixed gas (95% O2+5% CO2 gas). The tension of the preparation was measured with an isomeric transducer (TB-611T, Nippon Koden). The preparation was contracted with phenylephrine (10^−6 M) and, after the contraction was stabilized, the test compound was added accumulatively and relaxing action was observed.

[3] = tested on: trachea specimen contracted with acetylcholine; experiment: Effect on contraction by acetylcholine of trachea specimen removed from guinea pig; conditions: Cavia porcellus, acetylcholine 10^−6 M contraction, 50% relaxation vs papaverine 10^−4 M maximum, read-out: Trachea relaxing action
Procedure: Male Hartley guinea pigs (body weight 260-390 g) were anesthetized by the peritoneal administration of pentobarbital sodium (100 mg/kg) and exsanguinated, whereafter trachea was removed. The anterior cartilage of the trachea was opened and the band was cut in a 3 mm width strip to give a specimen. The specimen was hung in a Magnus bath (40 ml) filled with Krebs-Henseleit solution (NaCl 117 mM; KCl 4.7 mM; CaCl2 2.5 mM; MgSO4 1.2 mM; NaHCO3 24.8 mM; KH2PO4 1.2 mM; glucose 11.0 mM) at a load of 1 g. The Magnus bath was constantly bubbled with a mixed gas (95% O2+5% CO2 gas). The tension of the strip was measured with an isomeric transducer (TB-611T, Nippon Koden) and depicted on a recorder (Ti-102, Tokai Irika).

[4] = tested on: hind limb skin blood flow; experiment: Peripheral blood flow increasing action in STZ-induced diabetic rats; assay type: in vivo, rat; conditions: intravenous
Procedure: Peripheral Blood Flow Increasing Action
Streptozotocin (STZ, 65 mg/kg) was intravenously injected to male SD rats (body weight 200-300 g) to prepare diabetic rats. One month later, STZ-induced diabetic rats were anesthetized with pentobarbital sodium and the blood flow in the hind limb skin was measured with laser blood flowmeter (ALF21R, Advance). The test compound was intravenously administered via catheter dwelled in the carotid arteries, and hind limb skin blood flow increasing action was observed. The blood flow increasing action of the test compound was expressed by increase percentage from the blood flow before administration.

[5] = tested on: CEM cells (human T cell type established cell); experiment: Inhibition of VLA integrin activation (phorbol ester-induced adhesion of CEM cells to fibronectin); assay type: cell-based; conditions: CCRF-CEM, PMA-induced adhesion, read-out: Adhesion induction inhibition (%)
Procedure: Inhibition of VLA (Very Late Antigen) Integrin Activation
As the index of the activation by VLA integrin, phorbol ester-induced adhesion of CEM cells (human T cell type established cell) to fibronectin, which is a ligand of VIA integrin, was measured. The inhibitory action on the induced adhesion by the test compound was determined by the following method.
CEM cells were washed with RPMI1640 medium containing 0.5% bovine serum albumin (BSA), 10 mM HEPES, 2 mM L-glutamin, 1 mM sodium pyruvate, 60 μg/ml kanamycin sulfate and 1.5 mg/ml sodium hydrogencarbonate (hereinafter this medium is referred to as culture solution) and suspended in this medium for use in the following experiment. To each well of a 96 well plate coated with human fibronectin were added CEM cells (5×10^4) and the test compound dissolved in the culture solution (final concentration 1-100 μM) to the amount of 100 μl, and the plate was stood at 37° C. for 1 hour. Then, PMA (phorbol 12-myristate 13-acetate, TPA; final concentration 10 ng/ml) and the test compound were added to the amount of 200 μl, and the plate was stood at 37° C. for 30 minutes. Each well was washed twice with the culture solution (200 μL) at 37° C., and the LDH (lactate dehydrogenase) activity of the cells adhered to the plate was determined, whereby the amount of the adhered cell was measured. Based on the results obtained by the above-mentioned method, the inhibitory action of the test compound on the induced adhesion was calculated by the following formula The results are shown in Table 6. Inhibition (%) of adhesion induction=(a−b)/(a−c)×100 • a=number of cells adhered with the addition of PMA • b=number of cells adhered with the addition of test compound and PMA • c=number of cells adhered without stimulation

[6] = tested on: normal human umberical vascular endothelial cells; experiment: Inhibition of angiogenesis (lumen formation in vascular endothelial cells); assay type: cell-based; conditions: 18 hours, compared with the control, number rises with inhibition of lumen formation
Procedure: Inhibition of Angiogenesis
The inhibition of angiogenesis was evaluated by using the inhibition of lumen formation in vascular endothelial cell as an index. To be specific, normal human umberical vascular endothelial cells (KURABO […] LTD.) were suspended in E-GMUV medium at 5.5×10^4 cells/ml and 400 μl therefrom was added on matrigel plate (EHS sarcoma-derived reconstructed basement membrane, Collaborative Biomedical Products). Then, the test compound (1 mM solution, 4 μl) was added and the cells were incubated at 37° C. under 5% CO2 gas for 18 hours. After the completion of the incubation, the number of lumen per predetermined area was counted under a microscope. Inasmuch as the number of lumen increases by the inhibition of lumen formation, the test compound was evaluated by comparison of the number of lumen with the control.

[7] = tested on: smooth muscle cell (SMC) from rat aorta; experiment: Inhibition of growth of vascular smooth muscle cell; assay type: cell-based; conditions: 48 hours, MTT
Procedure: Inhibition of Growth of Vascular Smooth Muscle Cell
The separation from the artery of rat and culture of smooth muscle cell (SMC) followed the explant method of Ross (Ross, R. and Glomset, J. A., N. Engl. J. Med., 295, 369-420, 1976). Male wistar rats (10 week old) was slaughtered by cutting the carotid arteries and aorta of thorax was removed. After removal of fat tissues around the tunica externa and peeling of tunica intima, the artery was minced and incubated in 10% fetal bovine serum (FBS)-containing DMEM medium at 37° C. under 5% CO2 gas. Seven days later, the out-grown cells were separated by trypsin treatment, washed with phosphate-buffered saline (PBS) and incubated in 10% FBS-containing DMEM medium in a 80 cm^2 culture flask. The cells of subculture 2 were suspended in 10% FBS-containing DMEM medium at 5×10^4 cells/ml and 100 μl thereof per well was added to 96 well collagen-coated plate, which was incubated at 37° C. under 5% CO2 gas for one day. The test compound was appropriately diluted with dimethyl sulfoxide (DMSO) and added to the 96 well plate. The concentration of DMSO in the medium was adjusted to 1%. After 48 hours, 10 μl of MTT solution (5 mg/ml) was added and, 4 hours later, 10% sodium dodecyl sulfate-0.01 N hydrochloric acid (50 μl) was added. The absorbance at 570 nm was measured the following day by an immunoreader. The SMC growth inhibitory action of the test compound was shown by inhibition percentage calculated by the following formula The results are shown in Table 10.

[8] = target: T1, Human Platelet Rho Kinase (p160ROCK) (Homo sapiens, UniProt Q13464); experiment: Rho kinase inhibitory action (inhibition of human platelet Rho kinase (p160ROCK)); assay type: biochemical; conditions: histone substrate, 1 μM ATP
T1 construct: Human platelet p160ROCK was isolated by the method of Ishizaki et al; from tissue; host or cells: human platelets
Procedure: Rho Kinase Inhibitory Action (Inhibition of Human Platelet Rho Kinase (p160ROCK))
(§1) Kinase assay included the following steps. That is, a reaction mixture (total amount 30 μl) containing 50 mM Hepes-NaOH (pH=7.4), 10 mM MgCl2, 5 mM MnCl2, 2 mM dithiothreitol, 0.02% Brij35, 1 μM [γ-^32P]ATP, 330 μg/ml histone, p160ROCK (2 μl) isolated by the method of Ishizaki et al. and the test compound was incubated at 30° C. for 20 minutes. The solution was mixed with a 1/3 amount of 4× Laemmli sample buffer, boiled for 5 minutes and applied to SDS-PAGE. The gel was stained with Coomassie Brilliant Blue and dried. The band of histone was cut out and assayed for radioactivity.

p160ROCK = target: T2, p160ROCK (Homo sapiens, UniProt Q13464); experiment: Inhibition of p160ROCK (myc-tagged, expressed in COS cells); assay type: biochemical; conditions: enzyme expressed in COS cells
T2 construct: made in house; host or cells: COS cells (transient transfection, immunoprecipitated with 9E10 anti-myc antibody on protein G-Sepharose)
Procedure: as §1
(§2) Rho Kinase Inhibitory Action (Inhibition of p160ROCK and ROCKII)
(§3) COS cells were seeded in a 3.5 cm dish and incubated overnight. […] After incubation for 20 hours, the cells were washed once with ice-cooled PBS, and the cells were lysed on ice for 20 minutes using a lysis buffer (20 mM Tris-HCl (pH=7.5), 1 mM EDTA, 1 mM EGTA, 5 mM MgCl2, 25 mM NaF, 10 mM β glycerophosphate, 5 mM sodium pyrophorphate, 0.2 mM phenylmethylsulfonyl fluoride, 2 mM dithiothreitol, 0.2 mM sodium vanadate, 0.05% Triton X-100, 0.1 μM calyculin A). The lysate was centrifuged at 10,000×g for 10 minutes and the supernatant was recovered. […] Then, protein G-Sepharose was added and the mixture was shaken for 2 more hours. […]

ROCKII = target: T3, ROCKII (Mus musculus, UniProt P70336); experiment: Inhibition of ROCKII (myc-tagged, expressed in COS cells); assay type: biochemical; conditions: enzyme expressed in COS cells; read-out: IC50 (μM) ROCK-II
T3 construct: made in house; host or cells: COS cells (transient transfection, immunoprecipitated with 9E10 anti-myc antibody on protein G-Sepharose)
Procedure: as §1, §2, §3

mouse femoral bone = experiment: Inhibition of bone resorption (in vitro), mouse femoral bone; conditions: 144 h, 6 days incubation of ICR mouse femoral bone
Procedure: Inhibition of Bone Resorption (in vitro)
The determination of the in vitro inhibition of bone resorption using mouse femoral bone followed the method below.
The femoral bone of 3-6 week old male ICR mice was aseptically removed, and bone marrow cavity was washed with F12 medium, containing 10% heat inactivated fetal bovine serum, penicillin G calcium (100 units/ml), kanamycin sulfate (60 μg) and 0.15% sodium hydrogencarbonate (hereinafter the medium is to be referred to as culture solution). After washing the bone marrow cavity and then removing the soft tissue adhered to the bone, the bone was subjected to incubation. The test compound was once dissolved in dimethyl sulfoxide (DMSO) to give a 10 mg/ml solution, which was diluted 1000-fold with the culture solution to give a 10 μg/ml solution. The test compounds were respectively added to the concentration shown in Table 7 and, using this culture solution (1.2 ml), the ICR mouse femoral bone was incubated in a 24 well plate for 6 days under the conditions of 5% CO2 gas, 95% air. After the completion of the incubation, the culture supernatant was recovered, and the amount of calcium suspending in the culture supernatant was quantitatively determined by the chelate method using o-cresolphthalein. The bone resorption inhibitory action of the test compound was calculated by the following formula using the incubation of the femoral bone without addition of the test compound as a control. [formula] This experiment was done with 4 cases in each group. As the control, the same amount of DMSO alone as in the case with the addition of the test compound was used.

ddY mice = experiment: Acute toxicity in ddY mice; assay type: in vivo; conditions: intraperitoneal administration at 30 mg/kg, monitored for 5 days
Text: The compound 109.2HCl and compound 143.2HCl.H2O were respectively administered intraperitoneally to ddY mice and the mice were monitored for 5 days.

T2 sequence (Q13464 whole entry): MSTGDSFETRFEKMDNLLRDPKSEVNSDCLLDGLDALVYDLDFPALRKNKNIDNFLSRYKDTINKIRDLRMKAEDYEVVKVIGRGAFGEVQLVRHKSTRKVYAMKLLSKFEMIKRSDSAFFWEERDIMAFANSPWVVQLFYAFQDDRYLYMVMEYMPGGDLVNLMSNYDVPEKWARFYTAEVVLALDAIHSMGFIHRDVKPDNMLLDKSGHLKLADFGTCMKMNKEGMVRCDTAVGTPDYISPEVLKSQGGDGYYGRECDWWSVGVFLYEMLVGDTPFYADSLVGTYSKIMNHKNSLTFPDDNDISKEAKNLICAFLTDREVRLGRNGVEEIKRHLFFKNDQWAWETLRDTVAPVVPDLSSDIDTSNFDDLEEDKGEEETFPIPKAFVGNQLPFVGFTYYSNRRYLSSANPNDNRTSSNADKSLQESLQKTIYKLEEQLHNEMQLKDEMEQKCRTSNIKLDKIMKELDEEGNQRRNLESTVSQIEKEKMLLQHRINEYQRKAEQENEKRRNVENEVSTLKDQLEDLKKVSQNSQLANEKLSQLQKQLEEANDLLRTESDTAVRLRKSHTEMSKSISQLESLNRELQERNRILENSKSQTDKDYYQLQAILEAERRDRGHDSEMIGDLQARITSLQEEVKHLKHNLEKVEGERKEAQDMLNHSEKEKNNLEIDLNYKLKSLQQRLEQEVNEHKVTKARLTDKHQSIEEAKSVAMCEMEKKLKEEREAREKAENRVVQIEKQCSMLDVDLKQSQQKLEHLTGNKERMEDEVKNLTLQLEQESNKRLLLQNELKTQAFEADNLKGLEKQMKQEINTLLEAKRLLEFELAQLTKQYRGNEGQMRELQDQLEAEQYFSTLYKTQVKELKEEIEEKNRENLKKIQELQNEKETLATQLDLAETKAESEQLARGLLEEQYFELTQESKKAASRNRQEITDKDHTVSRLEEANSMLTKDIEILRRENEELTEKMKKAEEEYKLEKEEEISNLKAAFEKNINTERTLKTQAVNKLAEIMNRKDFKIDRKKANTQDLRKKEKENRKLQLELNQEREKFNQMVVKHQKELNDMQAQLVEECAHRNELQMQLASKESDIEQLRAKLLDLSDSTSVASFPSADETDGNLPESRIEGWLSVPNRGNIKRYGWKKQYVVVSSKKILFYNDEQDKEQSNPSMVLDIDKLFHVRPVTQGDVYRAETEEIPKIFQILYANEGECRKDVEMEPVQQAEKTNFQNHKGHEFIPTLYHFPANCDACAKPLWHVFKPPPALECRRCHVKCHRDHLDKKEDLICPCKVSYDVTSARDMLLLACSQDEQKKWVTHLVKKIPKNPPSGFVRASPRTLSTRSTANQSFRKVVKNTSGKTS
T1 sequence (Q13464 whole entry): as above
T3 sequence (P70336 whole entry): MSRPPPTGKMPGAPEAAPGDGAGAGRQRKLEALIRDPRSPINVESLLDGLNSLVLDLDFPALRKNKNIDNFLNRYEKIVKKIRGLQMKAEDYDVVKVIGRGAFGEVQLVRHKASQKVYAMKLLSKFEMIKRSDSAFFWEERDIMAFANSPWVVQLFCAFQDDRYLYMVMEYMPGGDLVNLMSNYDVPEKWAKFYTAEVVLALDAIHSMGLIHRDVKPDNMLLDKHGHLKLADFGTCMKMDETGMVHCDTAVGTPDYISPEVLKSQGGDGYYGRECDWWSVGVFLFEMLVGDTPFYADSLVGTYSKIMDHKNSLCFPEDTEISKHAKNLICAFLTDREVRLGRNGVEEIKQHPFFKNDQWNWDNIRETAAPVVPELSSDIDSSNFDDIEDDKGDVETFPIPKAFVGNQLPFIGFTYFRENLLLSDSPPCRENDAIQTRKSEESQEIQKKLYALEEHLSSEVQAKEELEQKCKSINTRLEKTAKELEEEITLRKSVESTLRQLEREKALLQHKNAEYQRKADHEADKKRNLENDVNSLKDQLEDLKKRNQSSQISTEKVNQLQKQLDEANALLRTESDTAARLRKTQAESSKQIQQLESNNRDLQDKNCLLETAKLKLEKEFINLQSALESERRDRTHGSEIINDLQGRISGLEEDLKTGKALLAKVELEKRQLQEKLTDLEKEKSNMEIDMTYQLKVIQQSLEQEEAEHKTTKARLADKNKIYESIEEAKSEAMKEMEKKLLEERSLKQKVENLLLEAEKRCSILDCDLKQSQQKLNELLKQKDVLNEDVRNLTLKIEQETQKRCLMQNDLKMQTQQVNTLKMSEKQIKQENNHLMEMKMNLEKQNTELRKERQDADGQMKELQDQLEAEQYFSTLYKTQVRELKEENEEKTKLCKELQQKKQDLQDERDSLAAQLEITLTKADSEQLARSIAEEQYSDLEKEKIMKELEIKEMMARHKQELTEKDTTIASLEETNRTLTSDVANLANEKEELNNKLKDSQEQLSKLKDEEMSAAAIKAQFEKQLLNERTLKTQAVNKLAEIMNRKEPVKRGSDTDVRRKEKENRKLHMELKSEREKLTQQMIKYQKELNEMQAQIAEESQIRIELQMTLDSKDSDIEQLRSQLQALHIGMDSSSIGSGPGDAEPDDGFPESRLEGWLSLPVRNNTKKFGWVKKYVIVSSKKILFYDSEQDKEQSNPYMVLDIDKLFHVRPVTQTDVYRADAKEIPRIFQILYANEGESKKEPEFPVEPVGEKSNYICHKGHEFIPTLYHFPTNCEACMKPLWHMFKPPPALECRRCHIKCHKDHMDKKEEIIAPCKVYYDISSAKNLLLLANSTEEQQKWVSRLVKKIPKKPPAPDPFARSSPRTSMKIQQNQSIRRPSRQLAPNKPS

| Structure (SMILES) | Inhibition (%) [1] [%] | IC50 [2] [µM] | IC50 [3] [µM] | Increase in skin blood flow ± standard error (%) ([4]; 0.03 μg) | Increase in skin blood flow ± standard error (%) ([4]; 0.1 μg) | inhibition at 10 µM ([5]; concentration 10 μM) [%] | Number of lumen (10 μM) [6] [%] | IC50 [7] [µM] | IC50 [8] [µM] | IC50 (p160ROCK) [µM] | IC50 (ROCKII) [µM] | inhibition at 100 µM ([5]; concentration 100 μM) [%] | inhibition at 100 µM (mouse femoral bone) [%] | Acute toxicity (death) (ddY mice) |
| --- | --- | --- | --- | --- | --- | --- | --- | --- | --- | --- | --- | --- | --- | --- |
| C[C@@H](N)c1ccc(C(=O)Nc2ccnc3[nH]ccc23)cc1 [Compound 165.2HCl.3/2H2O, (R)-(+)-N-(1H-pyrrolo[2,3-b]pyridin-4-yl)-4-(1-aminoethyl)benzamide] | 100 | 0.051 | 0.066 | 135.8 ± 0.0 | 144.7 ± 0.0 | 40 | 222 | 38 |  |  |  |  |  |  |
| N=C(N)NC[C@H]1CC[C@H](C(=O)Nc2ccnc3[nH]ncc23)CC1 [Compound 143.2HCl.H2O, trans-N-(1H-pyrazolo[3,4-b]pyridin-4-yl)-4-guanidinomethylcyclohexanecarboxamide] |  |  |  |  |  |  |  |  | 1.6 | 0.88 | 0.47 | 77 | 39.4 | did not cause death |
